We go through one compound from US20230330125A1, “ORAL COMPOSITION COMPRISING S-ADENOSYL METHIONINE AND A PROBIOTIC AND ITS USE FOR TREATING AND/OR PREVENTING MOOD DISORDERS” (Montefarmaco OTC S.p.A., priority 2020, published 2023).

Data set [1] relates to Lactobacillus helveticus R0052. Briefly: Liquid compatibility method (pH monitoring of strain growth with SAMe). In kind it is cell-based. On the procedure:
The study was carried out in a first phase with SAMe+Lactobacillus helveticus R0052, not microencapsulated, through a liquid compatibility method. The initial population tested was 15.10^E9 CFU/g units at 500 mg of SAMe. For this evaluation a pHmeter with 8 probes was used, and values were verified every 15 minutes.
The strains are inoculated into a liquid medium suitable for their growth, only under […] conditions (reason why in this way the Bifidobacterium is not tested), and the active substance is inoculated into the sample and not into the control.
From an operational point of view: the vial is filled with the liquid medium (50 ml RCM); the active, which should have been tested directly in its granulated form in the vial, is added, and it is mixed. Then the pH of the medium in the presence of the active is verified, if necessary, the pH is adjusted so that it is comprised between 6.5 and 7. R0052 strain is therefore inoculated (batch U12171600, 500.10^E9 CFU/g) into the vial. The sample is diluted 1/100 with Dilumat to obtain a dilution to 5.10^E9 CFU/ml and finally it is inoculated with 3 ml into the 50 ml RCM vial, obtaining […]. The vial is placed in warm bath, at 37°, and the pH started to be recorded for 18 hours.

Another data set relates to R0052 probiotic strain. Briefly: Microbiological test, CFU count in Petri dish with SAMe. In kind it is cell-based, Lactobacillus helveticus. The settings on record: SAMe marketed formulation 500 mg dose, vs probiotic strain only. The protocol:
(§1) 1.2 MICROBIOLOGICAL TEST: within the bio-compatibility study a microbiological evaluation was carried out. R0052 and R0175 probiotic strains were cultured in a Petri dish, in the presence of the active (SAMe, marketed formulation) at a 500 mg dose (as above). A sample was also analyzed as a reference of probiotic strain only, so that it could be compared with the addition of the active on the result in Colony-Forming Units (CFU). […] This is easily justified by the simple analytical error, known in the microbiological field.

The subject of the next data set is R0175 probiotic strain. Described as above. In kind it is cell-based, Bifidobacterium longum. The settings on record: SAMe marketed formulation 500 mg dose, vs probiotic strain only. On the procedure: as §1
For data set [2] the following is noted: cited from earlier work.

As for `C[S+](CC[C@H](N)C(=O)O)C[C@H]1O[C@@H](n2cnc3c(N)ncnc32)[C@H](O)[C@@H]1O` (some centres unmarked) [SAMe, S-adenosyl methionine], the “pH of medium, R0052 in contact with SAMe, final” value in data set [1] (500 mg SAMe, RCM medium, 37°, after pH decrease over 18 hours recording) is 4.2. Besides, the “pH of medium, R0052 in contact with SAMe, initial” value in data set [1] (500 mg SAMe, RCM medium, 37°, start of 18 hours recording) came out at 7.2. In addition, the “Compatibility of L. helveticus R0052 strain with SAMe” value in data set [1] (conclusion from acidification) was “compatible”. Further, the “pH of the active (SAMe) alone” value in data set [1] (without strain, RCM medium, 37°, remains essentially unchanged) is 7-7.5. The “Modification of CFU count” value with R0052 probiotic strain and in the data set with R0175 probiotic strain was “up to 5%” throughout. The “Plasma levels of the unmodified molecule” value in data set [2] (oral intake) is 5-10 % of the administered dose. The Plasma bioavailability in data set [2] (parenteral (intravenous or intramuscular) route) was 90-100 % of the administered dose.
